The values below are quoted from earlier work in article PMC2920223 (Analytical chemistry, 2010).

In series [1] the test system is aminopeptidases (aminopeptidase N (APN), puromycin-sensitive aminopeptidase (PSA), NAP and NAP2). The note with it: rat.
The conditions of series [2]: exogenous YGGFM, rat striatal slices.
Series [3] deals with puromycin-sensitive aminopeptidases (PSA, NAP and NAP2). As to conditions: at 20 μM puromycin.

Turning to YGGFL, the cleaved bond result in series [1] is on record as “tyrosine-Gly”.
For YGGFM, the “hydrolysis at Tyr-Gly as share of the total hydrolysis” value in series [2] was “about 80%”.
Consider `COc1ccc(C[C@H](N)C(=O)N[C@H]2[C@@H](O)[C@H](n3cnc4c(N(C)C)ncnc43)O[C@@H]2CO)cc1` [puromycin], for which, in series [3], the “inhibition of puromycin-sensitive aminopeptidases” value is recorded as “effectively inhibited”.
